Patent US12060338B2, “Benzothia(di)azepine compounds and their use as bile acid modulators” (Albireo AB, priority 2019, dated 2024)

Key:
[1] = biological target: T1, Human LBAT (Homo sapiens, UniProt Q14973); assay: LBAT assay, 3H-taurocholic acid uptake in human LBAT-overexpressing cells; format: cell-based; details: read-out: hLBAT IC50
T1 construct: expressed in transfected cells; kept under Geneticin selection
T1 sequence (Q14973 1-349): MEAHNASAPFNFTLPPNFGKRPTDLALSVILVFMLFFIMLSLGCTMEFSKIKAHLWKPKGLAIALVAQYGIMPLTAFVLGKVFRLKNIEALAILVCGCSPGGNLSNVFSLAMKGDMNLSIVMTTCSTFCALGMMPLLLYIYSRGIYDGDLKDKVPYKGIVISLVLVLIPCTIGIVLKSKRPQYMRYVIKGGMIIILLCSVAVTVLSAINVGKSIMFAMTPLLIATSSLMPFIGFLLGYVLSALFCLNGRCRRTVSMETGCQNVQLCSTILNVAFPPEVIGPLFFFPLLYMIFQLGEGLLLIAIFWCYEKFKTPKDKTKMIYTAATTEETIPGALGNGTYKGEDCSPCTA
Procedure: (§1) 20,000 cells (Human or Mouse LBAT-overexpressing cells) were seeded in 96-wells plate (Corning CLS3809) in 100 μL MEM-alpha medium (Gibco 12571-063) supplemented with 10% FBS (Gibco 10438026) containing Geneticin (Gibco 10131-027) (1 mg/mL) and incubated at 37° C. in 5% CO2 for 24 hours. After incubation, media was decanted from the wells and cells were washed two times with 300 μL of basal MEM-alpha medium (FBS-free). After decanting basal MEM-alpha medium each time, plates were tapped against paper towel to ensure maximum removal of residual media.
For human LBAT, incubation mix was prepared by adding test inhibitor dilutions (3-fold serial dilution in DMSO (Sigma D2650), 10 points) in MEM-alpha (without FBS) containing 0.3 μM 3H-taurocholic acid (ARC ART-1368) and 7.5 μM cold taurocholic acid (Sigma T4009) (maintaining 0.2% final DMSO concentration). For mouse LBAT, incubation mix was prepared by adding test inhibitor dilutions (3-fold serial dilution in DMSO, 10 points) in MEM-alpha (without FBS) containing 0.3 μM 3H-taurocholic acid and 25 μM cold taurocholic acid maintaining 0.2% final DMSO concentration).
50 μL of incubation mix containing test inhibitors was then added to the wells (in duplicate) and the plates were incubated for 20 minutes in a CO2 incubator at 37° C. After incubation, the reaction was stopped by keeping the plates on ice water mix for 2-3 minutes and then the incubation mix was aspirated completely from the wells. The wells were washed two times with 250 μL of chilled unlabelled 1 mM taurocholic acid dissolved in HEPES (Gibco 15630080)-buffered (10 mM) HBSS (Gibco 14175079) (pH 7.4). The plates were tapped against a paper towel after every wash to ensure maximum removal of blocking buffer.
100 μL of MicroScint-20 (PerkinElmer 6013621) was added to the wells and kept overnight at room temperature before reading the plates in TopCount NXT™ Microplate Scintillation and Luminescence Counter from PerkinElmer under 3H Test protocol (set at 120 seconds reading time per well, with normal plate orientation).
(§2) All test compounds were provided in powder form at room temperature. 10 mM DMSO stocks of the test compounds were prepared, aliquoted and stored at −20° C. From the 10 mM DMSO stock of the compounds, a 3-fold serial dilution in DMSO was prepared to get a total of 10 dilutions of the test compounds. 0.5 μL of this dilution in DMSO was added to 250 μL of FBS-free basal media containing 3H-taurocholic acid and cold taurocholic acid to prepare the incubation mixture.

[2] = biological target: T2, Human IBAT (Homo sapiens, UniProt Q12908); assay: IBAT assay, 3H-taurocholic acid uptake in human IBAT-overexpressing cells; format: cell-based; details: read-out: hIBAT IC50
T2 construct: expressed in transfected cells; kept under Puromycin selection
T2 sequence (Q12908 1-348): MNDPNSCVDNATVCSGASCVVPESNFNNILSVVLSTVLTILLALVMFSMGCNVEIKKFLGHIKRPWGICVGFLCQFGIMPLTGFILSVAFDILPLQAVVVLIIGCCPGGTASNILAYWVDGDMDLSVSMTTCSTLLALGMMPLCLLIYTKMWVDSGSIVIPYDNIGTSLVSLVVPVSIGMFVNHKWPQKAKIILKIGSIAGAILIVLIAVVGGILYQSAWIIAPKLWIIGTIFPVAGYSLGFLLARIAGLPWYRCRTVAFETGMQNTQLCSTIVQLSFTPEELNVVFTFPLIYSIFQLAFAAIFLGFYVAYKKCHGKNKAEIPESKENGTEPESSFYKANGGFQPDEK
Procedure: as §1, with “10,000” for “20,000”, “IBAT-overexpressing” for “LBAT-overexpressing”, “200” for “100”, “Puromycin” for “Geneticin”, “A1113803) (10 μg/mL)” for “10131-027) (1 mg/mL)”, “48” for “24”
Test inhibitor dilutions (highest test concentration being 10 μM, 3-fold serial dilution, 10 points) prepared in DMSO (Sigma D2650) were added in incubation mix (maintaining 0.2% final DMSO concentration) containing 0.25 μM 3H-taurocholic acid (ARC ART-1368) and 5 μM of cold taurocholic acid (Sigma T4009). 50 μL of incubation mix containing test inhibitors was then added to the wells (in duplicate) and the plates were incubated for 20 minutes in a CO2 incubator at 37° C. After incubation, the reaction was stopped by keeping the plates on ice water mix for 2-3 minutes and then the incubation mix was aspirated completely from the wells. The wells were washed two times with 250 μL of chilled unlabelled 1 mM taurocholic acid dissolved in HEPES (Gibco 15630080)-buffered (10 mM) HBSS (Gibco 14175079) (pH 7.4). The plates were tapped against a paper towel after every wash to ensure maximum removal of blocking buffer.
100 μL of MicroScint-20 (PerkinElmer 6013621) was added to the wells and kept overnight at room temperature before reading the plates in TopCount NXT™ Microplate Scintillation and Luminescence Counter from PerkinElmer under 3H Test protocol (set at 120 seconds reading time per well).
as §2

[3] = Bidirectional permeability assay (Caco-2 cells); format: in vitro ADME; details: human; for Papp A→B at 120 min, 10 µM: Caco-2, pH 7.4, absorptive direction A2B; for Papp B→A at 120 min, 10 µM: Caco-2, pH 7.4, secretory direction B2A
Source text: HepaRG-Based Assay Protocol

[4] = Bioavailability study in mice; format: in vivo; details: male, mouse, plasma, 1 mg/kg intravenous, 10 mg/kg oral
Procedure: (§3) Male mice (C57BL/6 or CD1) or Wistar rats of 8-10 weeks old were used. For each test compound, two groups of 3 animals each were used. One group was administered a single intravenous dose of 1 mg/kg (vehicle 100% DMSO) through the tail vein and the other group was administered a single oral dose of 10 mg/kg through gavage needle. The group that was administered an oral dose was fasted overnight. Blood samples were collected after 0.083, 0.25, 0.5, 1, 2, 4, 6, 8 and 24 hours following intravenous administration, and after 0.25, 0.5, 1, 2, 4, 6, 8 and 24 hours following oral administration. Blood samples were taken from saphenous vein. 0.2% EDTA was used as the anticoagulant. The samples were analyzed by a discovery grade bioanalytical method developed for the estimation of test compound in plasma, using an LC-MS/MS system.

[5] = Bioavailability study in rats; format: in vivo; details: male, Wistar, plasma; rat; 1 mg/kg intravenous, 10 mg/kg oral
Procedure: as §3

[6] = tested on: urinary total bile acids; assay: Urinary bile acid output in dogs; format: in vivo; details: male Beagle dogs, once daily for three days at 10 and 50 mg/kg
Procedure: Male Beagle dogs were used in the study. Animals were dosed with the compound of Example 2 once daily for three days at 10 and 50 mg/kg, respectively. Basal urine samples were collected before study start by cystocentesis. Urine samples were then collected at 2 h and 8 h post-dosing on Day 1 and Day 3. Urine bile acids and urine creatinine analyses were performed at a clinical chemistry lab.

| Structure (SMILES) | IC50 [1] [nM] | IC50 [2] [nM] | Papp A→B at 120 min, 10 µM [3] [×10⁻⁶ cm/s] | Papp B→A at 120 min, 10 µM [3] [×10⁻⁶ cm/s] | bioavailability ([4]; C57BL/6 mice) [%] | bioavailability ([4]; CD1 mice) [%] | bioavailability [5] [%] | urinary total bile acids increase versus baseline [6] |
| --- | --- | --- | --- | --- | --- | --- | --- | --- |
| CCCC1(C)CN(c2ccccc2)c2cc(SC)c(OC=CC(=O)O)cc2S(=O)(=O)C1 (single isomer, unassigned) [Example 5] | 32 |  |  |  |  |  |  |  |
| CCC[C@]1(C)CN(c2ccccc2)c2cc(SC)c(O/C=C/C(=O)O)cc2S(=O)(=O)C1 (single isomer, unassigned) [Example 6] | 1050 | 678 |  |  |  |  |  |  |
| CCC[C@@]1(C)CN(c2ccccc2)c2cc(SC)c(O/C=C(\F)C(=O)O)cc2S(=O)(=O)C1 (single isomer, unassigned) [Example 9] | 56 | 186 |  |  |  |  |  |  |
| CCCCC1(C)CN(c2ccccc2)c2cc(SC)c(O/C=C(\F)C(=O)O)cc2S(=O)(=O)C1 (centres unmarked) [Example 1, (Z)-3-((3-buty-3-methyl-7-(methylthio)-1,1-dioxido-5-phenyl-2,3,4,5-tetrahydro-1,5-benzothiazepin-8-yl)oxy)-2-fluoroacrylic acid] | 14.4 | 23.7 |  |  |  |  |  |  |
| CCCC1(C)CN(c2ccccc2)c2cc(SC)c(O/C=C(\F)C(=O)O)cc2S(=O)(=O)C1 (centres unmarked) [Example 7, (Z)-2-fluoro-3-((3-methyl-7-(methylthio)-1,1-dioxido-5-phenyl-3-propy-2,3,4,5-tetrahydro-1,5-benzothiazepin-8-yl)oxy)acrylic acid] | 23 | 435 |  |  |  |  |  |  |
| CCC1(C)CN(c2ccccc2)c2cc(SC)c(O/C=C(\F)C(=O)O)cc2S(=O)(=O)C1 (centres unmarked) [Example 10, (Z)-3-((3-ethyl-3-methyl-7-(methylthio)-1,1-dioxido-5-phenyl-2,3,4,5-tetrahydro-1,5-benzothiazepin-8-yl)oxy)-2-fluoroacrylic acid] | 83 | 906 |  |  |  |  |  |  |

Second part, led by results:

| IC50 [1] [nM] | IC50 [2] [nM] | Papp A→B at 120 min, 10 µM [3] [×10⁻⁶ cm/s] | Papp B→A at 120 min, 10 µM [3] [×10⁻⁶ cm/s] | bioavailability ([4]; C57BL/6 mice) [%] | bioavailability ([4]; CD1 mice) [%] | bioavailability [5] [%] | Structure (SMILES) | urinary total bile acids increase versus baseline [6] |
| --- | --- | --- | --- | --- | --- | --- | --- | --- |
| 17.4 | 22.7 | 3.6 | 6.6 | 15.7 | 32.1 to 55.7 | 34.5 | CCCC[C@]1(C)CN(c2ccccc2)c2cc(SC)c(O/C=C(\F)C(=O)O)cc2S(=O)(=O)C1 (single isomer, unassigned) [Example 2] | 5- to 10 fold |
| 9.2 | 735 | 3.6 | 9.3 |  |  |  | CCCC[C@@]1(C)CN(c2ccccc2)c2cc(SC)c(O/C=C(\F)C(=O)O)cc2S(=O)(=O)C1 (single isomer, unassigned) [Example 3] |  |
| 5.2 | 465 | 3.6 | 6.2 |  |  |  | CCC[C@]1(C)CN(c2ccccc2)c2cc(SC)c(O/C=C(\F)C(=O)O)cc2S(=O)(=O)C1 (single isomer, unassigned) [Example 8] |  |
| 66 | 564 |  |  |  |  |  | CCCC1(C)CN(c2ccccc2)c2cc(SC)c(O/C=C/C(=O)O)cc2S(=O)(=O)C1 (centres unmarked) [Example 4, (E)-3-((3-methyl-7-(methylthio)-1,1-dioxido-5-phenyl-3-propy-2,3,4,5-tetrahydro-1,5-benzothiazepin-8-yl)oxy)acrylic acid] |  |
